According to patent publication US5143911A, “Antibiotic C-3 di-hydroxyphenyl substituted cephalosporin compounds, compositions and method of use thereof” (Bristol-Myers Squibb Company, priority 1990, dated 1992):
≈ marks a conversion by molar mass, not a printed value.

What was measured:
P. cepacia No. 651 = conditions: Burkholderia cepacia, NO.651, 18 h, pH 7.2
E. faecium A24817 = assay type: cell-based; conditions: Enterococcus faecium, pH 7.2, 32° C. 18 hr, 10^6 cells/ml
E. coli Juhl A15119 = conditions: Escherichia coli, JUHLA15119, 18 h, pH 7.2
E. faecalis A9808 = conditions: Enterococcus faecalis, A9808, 18 h, pH 7.2
C. freundii GN 7391 = conditions: Citrobacter freundii, GN7391, 18 h, pH 7.2
S. marcescens IPM-15 = conditions: Serratia marcescens, IPM15, 18 h, pH 7.2
K. pneumoniae PCI 602 = conditions: Klebsiella pneumoniae, PCI602, 18 h, pH 7.2
S. epidermidis 11-1230 = conditions: Staphylococcus epidermidis, 111230, 18 h, pH 7.2
X. maltophilia GN 12873 = conditions: Stenotrophomonas maltophilia, GN12873, 18 h, pH 7.2
X. maltophilia No. 661 = conditions: Stenotrophomonas maltophilia, NO.661, 18 h, pH 7.2
S. aureus 209P = conditions: Staphylococcus aureus, 18 h, pH 7.2
M. morgani 1510/9 = conditions: 18 h, pH 7.2
S. aureus IPM-24 (MRSA) = conditions: Staphylococcus aureus, 18 h, pH 7.2
B. subtilis PCI 219 = conditions: Bacillus subtilis, PCI219, 18 h, pH 7.2
C. terrigena IFO 12685 = conditions: 18 h, pH 7.2
E. cloacae IPM-12 = conditions: Enterobacter cloacae, IPM12, 18 h, pH 7.2
P. aeruginosa IPM-8 = conditions: Pseudomonas aeruginosa, IPM8, 18 h, pH 7.2
P. aeruginosa A20599 = assay type: cell-based; conditions: Pseudomonas aeruginosa, pH 7.2, 32° C. 18 hr, 10^6 cells/ml
P. rettgeri IPM-14 = conditions: Providencia rettgeri, IPM14, 18 h, pH 7.2
S. epidermidis 11-1168 = assay type: cell-based; conditions: Staphylococcus epidermidis, 111168, pH 7.2, 32° C. 18 hr, 10^6 cells/ml
E. coli 255 = conditions: Escherichia coli, 255, 18 h, pH 7.2
P. aeruginosa KKA 19 = conditions: Pseudomonas aeruginosa, KKA19, 18 h, pH 7.2
S. marcescens IPM-16 = conditions: Serratia marcescens, IPM16, 18 h, pH 7.2
P. cepacia A21213 = assay type: cell-based; conditions: Burkholderia cepacia, pH 7.2, 32° C. 18 hr, 10^6 cells/ml
S. aureus Smith = conditions: Staphylococcus aureus, 18 h, pH 7.2
S. aureus 4-1015 (MRSA) = conditions: Staphylococcus aureus, 18 h, pH 7.2
M. morgani 1510 = conditions: 18 h, pH 7.2
P. aeruginosa IPM-9 = conditions: Pseudomonas aeruginosa, IPM9, 18 h, pH 7.2
P. mirabilis IFO-2849 = conditions: Proteus mirabilis, IFO2849, 18 h, pH 7.2
P. vulgaris IPM-13 = assay type: cell-based; conditions: Proteus vulgaris, IPM13, pH 7.2, 32° C. 18 hr, 10^6 cells/ml
M. luteus 1001 = conditions: Micrococcus luteus, 1001, 18 h, pH 7.2
[1] = test system: Cephalothin (CET)sensitive E. coli(2), Kl. pneumoniae(1) and Pr. mirabilis(2); test: MIC, two-fold serial agar dilution, Mueller-Hinton agar (geometric mean, group Gn-Ia); assay type: cell-based; conditions: 5 strains
Procedure: (§1) For a primary evaluation of some representative compounds of this invention, minimum inhibitory concentrations (MIC's) were determined against 32 strains of test organisms by two-fold serial agar dilution method in Mueller-Hinton agar.
GnIa: Cephalothin (CET)sensitive E. coli(2)*, Kl. pneumoniae(1) and Pr.

B. fragilis A 22021 = test: In vitro activity against anaerobes (MIC), two-fold serial agar dilution, GAM agar; assay type: cell-based; conditions: Bacteroides fragilis, A22021, Gn, Beta-Lactamase(-)
B. fragilis A 22693 = test: as above; assay type: cell-based; conditions: Bacteroides fragilis, A22693, Gn, Beta-Lactamase(-)
B. fragilis CUH-108 = test: as above; assay type: cell-based; conditions: Bacteroides fragilis, CUH108, Gn, Beta-Lactamase(+), Clindamycin-resistant
Procedure: In vitro activity against anaerobic bacteria was determined on eight strains of B. fragilis by two-fold serial agar dilution method in GAM agar.

B. fragilis A 21916 = test: as above; assay type: cell-based; conditions: Bacteroides fragilis, A21916, Gn, Beta-Lactamase(-)
B. fragilis A 22533 = test: as above; assay type: cell-based; conditions: Bacteroides fragilis, A22533, Gn, Beta-Lactamase(+)
C. perfringens A9635 = test: microbe, parasite or virus in culture; assay type: cell-based; conditions: Clostridium perfringens
B. fragilis A 22695 = test: In vitro activity against anaerobes (MIC), two-fold serial agar dilution, GAM agar; assay type: cell-based; conditions: Bacteroides fragilis, A22695, Gn, Beta-Lactamase(+)
[2] = test system: CETresistant E. coli(3), and Kl. pneumoniae(2); test: MIC, two-fold serial agar dilution, Mueller-Hinton agar (geometric mean, group Gn-Ib); assay type: cell-based; conditions: Escherichia coli, read-out: Geometric Mean of MIC, Gn-Ib
Procedure: as §1
GnIb: CETresistant E. coli(3), and Kl. pneumoniae(2)

P. acnes A 21933 = test: In vitro activity against anaerobes (MIC); assay type: cell-based; conditions: Cutibacterium acnes, A21933, Gp
[3] = test system: Penicillin (PC)sensitive S. (5 strains); test: MIC, two-fold serial agar dilution, Mueller-Hinton agar (geometric mean, group Gp-Ia); assay type: cell-based, S. aureus; conditions: Staphylococcus aureus
Procedure: as §1
Gp-Ia: Penicillin (PC)sensitive S.

Ps. aeruginosa (7) = test: MIC, two-fold serial agar dilution, Mueller-Hinton agar (geometric mean, group Gn-III); assay type: cell-based; conditions: Pseudomonas aeruginosa, 7 strains
Procedure: as §1
GnIII: Ps. aeruginosa (7)

C. difficile A 21675 = test: In vitro activity against anaerobes (MIC); assay type: cell-based; conditions: Clostridioides difficile, A21675, Gp, Clindamycin-resistant
[4] = test system: M. morganii(1), Ent. cloacae(2), and Ser. marcescens(2); test: MIC, two-fold serial agar dilution, Mueller-Hinton agar (geometric mean, group Gn-II); assay type: cell-based; conditions: 5 strains
Procedure: as §1
GnII: M. morganii(1), Ent. cloacae(2), and Ser. marcescens(2)

B. fragilis A 22534 = test: In vitro activity against anaerobes (MIC), two-fold serial agar dilution, GAM agar; assay type: cell-based; conditions: Bacteroides fragilis, A22534, Gn, Beta-Lactamase(+)
PCresistant S. aureus = test: MIC, two-fold serial agar dilution, Mueller-Hinton agar (geometric mean, group Gp-Ib); assay type: cell-based; conditions: Staphylococcus aureus, penicillin-resistant S. aureus, 5 strains
Procedure: as §1
GpIb: PCresistant S. aureus

B. fragilis A 22053 = test: In vitro activity against anaerobes (MIC), two-fold serial agar dilution, GAM agar; assay type: cell-based; conditions: Bacteroides fragilis, A22053, Gn, Beta-Lactamase(-)

Question: What does the source list for `Nc1nc(/C(=N/O)C(=O)NC2C(=O)N3C(C(=O)O)=C(/C=C/COC(=O)c4ccc(O)c(O)c4)CSC23)cs1` (stereo not drawn) [Id, 7-[(Z)-2-(2-Aminothiazol-4-yl)-2-hydroxyiminoacetamido]-3-[(E)-3l-(3,4-dihydroxybenzoyloxy)-1-propen-1-yl]-3-cephem-4-carboxylic acid]?
Answer: MIC (P. cepacia No. 651): > 100 µg/mL; MIC (E. faecium A24817): 100 µg/mL (≈ 178 µM); MIC (E. coli Juhl A15119): 0.2 µg/mL (≈ 0.356 µM); MIC (E. faecalis A9808): 12.5 µg/mL (≈ 22.3 µM); MIC (C. freundii GN 7391): 50 µg/mL (≈ 89 µM); MIC (S. marcescens IPM-15): > 100 µg/mL; MIC (K. pneumoniae PCI 602): 0.025 µg/mL (≈ 0.0445 µM); MIC (S. epidermidis 11-1230): 6.3 µg/mL (≈ 11.2 µM); MIC (X. maltophilia GN 12873): > 100 µg/mL; MIC (X. maltophilia No. 661): > 100 µg/mL; MIC (S. aureus 209P): 0.8 µg/mL (≈ 1.42 µM); MIC (M. morgani 1510/9): 0.2 µg/mL (≈ 0.356 µM); MIC (S. aureus IPM-24 (MRSA)): 100 µg/mL (≈ 178 µM); MIC (B. subtilis PCI 219): 0.4 µg/mL (≈ 0.712 µM); MIC (C. terrigena IFO 12685): 0.8 µg/mL (≈ 1.42 µM); MIC (E. cloacae IPM-12): > 100 µg/mL; MIC (P. aeruginosa IPM-8): > 100 µg/mL; MIC (P. aeruginosa A20599): > 100 µg/mL; MIC (P. rettgeri IPM-14): 0.4 µg/mL (≈ 0.712 µM); MIC (S. epidermidis 11-1168): 3.1 µg/mL (≈ 5.52 µM); MIC (E. coli 255): 0.8 µg/mL (≈ 1.42 µM); MIC (P. aeruginosa KKA 19): > 100 µg/mL; MIC (S. marcescens IPM-16): > 100 µg/mL; MIC (P. cepacia A21213): > 100 µg/mL; MIC (S. aureus Smith): 0.8 µg/mL (≈ 1.42 µM); MIC (S. aureus 4-1015 (MRSA)): 6.3 µg/mL (≈ 11.2 µM); MIC (M. morgani 1510): 6.3 µg/mL (≈ 11.2 µM); MIC (P. aeruginosa IPM-9): > 100 µg/mL; MIC (P. mirabilis IFO-2849): 0.2 µg/mL (≈ 0.356 µM); MIC (P. vulgaris IPM-13): > 100 µg/mL; MIC (M. luteus 1001): 0.2 µg/mL (≈ 0.356 µM)

Question: What does the source list for `CO/N=C(\C(=O)NC1C(=O)N2C(C(=O)O)=C(/C=C/COC(=O)Nc3ccc(O)c(O)c3)CSC12)c1csc(N)n1` (stereo not drawn) [Ie, 7-[(Z)-2-(2-Aminothiazol-4-yl)-2-methoxyiminoacetamido]-3-[(E)-3-(N-3,4-dihyroxyphenyl)carbamoyloxy-1-propen-1-yl]-3-cephem-4-carboxylic acid]?
Answer: MIC [1]: 0.23 µg/mL (≈ 0.389 µM); MIC (B. fragilis A 22021): 0.4 µg/mL (≈ 0.677 µM); MIC (B. fragilis A 22693): 3.1 µg/mL (≈ 5.25 µM); MIC (B. fragilis CUH-108): 100 µg/mL (≈ 169 µM); MIC (B. fragilis A 21916): 6.3 µg/mL (≈ 10.7 µM); MIC (B. fragilis A 22533): > 100 µg/mL; MIC (C. perfringens A9635): 1.6 µg/mL (≈ 2.71 µM); MIC (B. fragilis A 22695): 25 µg/mL (≈ 42.3 µM); MIC [2]: 0.46 µg/mL (≈ 0.779 µM); MIC (P. acnes A 21933): 1.6 µg/mL (≈ 2.71 µM); MIC [3]: 6.3 µg/mL (≈ 10.7 µM); MIC (Ps. aeruginosa (7)): 50 µg/mL (≈ 84.7 µM); MIC (C. difficile A 21675): 50 µg/mL (≈ 84.7 µM); MIC [4]: 3.6 µg/mL (≈ 6.1 µM); MIC (B. fragilis A 22534): > 100 µg/mL; MIC (PCresistant S. aureus): 7.2 µg/mL (≈ 12.2 µM); MIC (B. fragilis A 22053): 3.1 µg/mL (≈ 5.25 µM)
